Consider 4 compounds from EP1669379B1, “3,5-DIMETHYL-1-ADAMANTYL-AMMONIUM POLYMERIC SALTS AND THE USE THEREOF IN THE FORM OF ANTIVIRAL AGENTS” (priority 2003, dated 2005).

Structures can show the parent of a compound that is named as a salt. Where two headings read alike, the source gives them in different places.

One data set is described as follows: solubility (qualitative). In kind it is physicochemical.
Data set [1] is described as follows: acute toxicity, single oral administration to mice (LD50). To be noted: both sexes, Balb, mouse, in vivo. As to the method: The toxicity level of claimed compounds was assessed according to a general index of acute toxicity - average fatal dose of LD50. The study was held with a single oral administration of the agent to white mice of both sexes, line "Balb", weight 18 - 20 g, and to white rats, line "Vistar", weight 130 - 250 g (female) and 225 - 370 g (male). The medications were administered to mice in the dose range from 250 to 1100 mg/kg, and to rats in the range of 480 - 2315 mg/kg.

Data set [2] relates to virus of the influenza of the type A/Victoria35/72. In kind it is cell-based. To be noted: CAC model; dose 25.0 mcg/ml as calculated per equimolecular content of DMAAM.
Data set [3] concerns virus of the influenza A/Li/40. The data set is described as follows: antiviral activity in tissue culture of chorionallantoic coat fragments (CAC model), A/Li/40. In kind it is cell-based, chick-embryos. To be noted: dose 25.0 mcg/ml as calculated per equimolecular content of DMAAM. As to the method:
(§1) The tests of antiviral activity of produced polymeric salts were conducted against the viruses of types A and B influenza using the tissue culture of chorionallantoic coat fragments from chick-embryos (model CAC) and infecting animals (mice).

Data set [4] concerns virus of the influenza B/Li/40. As to the kind of experiment: antiviral activity in infected mice, medical and preventive treatment scheme, oral. In kind it is in vivo. As to conditions: single dose 50 mg/ml as calculated per equimolecular content of DMAAM, administration frequency 5. On the procedure:
as §1
(§2) In each experimental and control (placebo) group 20 mice of both sexes were infected.

The subject of data set [5] is influenza A/Aichi/2/68 virus. As to the kind of experiment: duration of antiviral activity in infected mice, preventive application scheme, single oral dose. In kind it is in vivo. As to conditions: for Protection index of medication (%) when administered in specified periods (hours) before contamination: mice, single oral dose 100mg/kg as calculated per equimolecular DMAAM content. As to the method:
as §1, §2

For data set [6], the system named is influenza virus of B type. The data set is described as follows: summary statement on activity against influenza virus of B type. As to conditions: conclusion from the tables; protection index less than 20 is considered inactive. An excerpt:
At the same time synthesized (claimed) polymeric compounds of 3.5-dimethyl-1-adamantylamine have an effective level of antiviral activity against the influenza virus of B type, both in the infection model of chick-embryo and mice.

In data set [7] the test system is influenza virus of B type. As to conditions: statement with reference to USSR author's certificates; cited from earlier work.

For `CC12CC3CC(C)(C1)CC(N)(C3)C2` [3.5-dimethyl-l-adamantylamine, 3.5-dimethyl-1-adamantylamine], in the data set “solubility (qualitative)”, the solubility in water result is listed as “insoluble in water”.

Regarding `CC12CC3CC(C)(C1)CC(N)(C3)C2` [HC - DMAAM (memantine), hydrochloride 3.5-dimethyl-1-adamantylamine], the LD50 (in general, the dose expected to kill half of the subjects tested) in data set [1] was found to be 363 mg/kg. The entries for the “Protection index of the medication, %” value in data set [2] and in data set [3] were 39% and 0%, respectively. For the same compound, in data set [4], the “Protection index of medication, %” value was 7.1%. Moreover, in data set [4], the “The number of animals Died, %” value is recorded as 65%. Besides, in data set [4], the “The number of animals Died, Animal units” value is 13. Further, the “Protection index of medication (%) when administered in specified periods (hours) before contamination” value was 37% in data set [5] (1 hour before contamination); 28% in data set [5] (24 hours before contamination); 22% in data set [5] (48 hours before contamination); 11% in data set [5] (72 hours before contamination); 9% in data set [5] (96 hours before contamination); 7% in data set [5] (120 hours before contamination). Moreover, in data set [5] (prevention scheme, same dose as calculated per 3.5-dimethyl-1-adamantylamine content), the “time of administration before infection at which the medication was effective” value was 24 h. The “antiviral activity against the influenza virus of B type” value (“antiviral activity” below) in data set [6] is “is not effective”.

As for `Cl.NC12CC3CC(CC(C3)C1)C2` [midantan, hydrochloride 1-adamatilamine], the “antiviral activity” value in data set [7] is listed as “is not effective”.

As to `CC(N)C12CC3CC(CC(C3)C1)C2.Cl` (stereo not drawn) [remantadin, hydrochloride α-methyl-α-(1-adamantyl)methylamine], in data set [7], the “antiviral activity” value was “is not effective”.
